Measured values: US6967261B1, “Bandage, methods of producing and using same” (Kimberly-Clark Worldwide, priority 2001, dated 2005)

Tests used:
[1] = system: full thickness (excisional) wounds; assay: Accelerated wound healing study, full thickness acute wound model; format: in vivo, albino rats; conditions: rats, topical on wound, over 15 days; versus gauze and Comfeel
Protocol: In the examples of the study, a series of comparative control bandage substrates were evaluated as to the speed at which wounds covered/dressed with such bandages healed. In particular, the rates of re-epithelialization were measured for wounds dressed by such control dressing materials.
Wounds were treated with test and control articles on the day of wounding (day 0) on 2,4,6,8,10, 12, and 14 days after the injury. CNA (freeze dried) was cut to the approximate size of the wound and applied over the wound. Chitosan (powder) and NA (powder) were applied over the wound to the depth that covered the underlying tissue. The gauze was cut to extend approximately 0.5 cm beyond the margins of the wound. […]
For the study, twenty four albino rats (12M/12F), each weighing between 250-300 g, were anesthetized (90 mg/Kg Ketamine HCL and 10 mg/Kg Xylazine) and the entire dorsal region of each rat was shaved. […] The epithelial thickness of the three sections of the wound (margin, center and midpoint between these two) was measured by morphometric analysis of the microscopic image using Image-Pro Plus software, Version 3.0 (Media Cybernetics). The average thickness of these sites within the wound was determined for wound healing of the entire site.

[2] = system: human blood; assay: Lee and White coagulation assay in human blood; conditions: dried form, 5 mg/ml, triplicate
Protocol: Several hemostatic agents were compared to determine relative effectiveness when reviewed with untreated human blood. Such comparison is illustrated in the following Table 23.
Each of the compounds were evaluated in the comparison against the standard control (human blood) and the negative control heparin, which is an anti-coagulant.
Lee and White Coagulation Assay in Human Blood

Molecule	wound healing capability (rate of epithelialization, epithelial thickness) [1]	BLOOD CLOTTING TIME [2]
NC(=O)c1cccnc1.O=C1O[C@H]([C@@H](O)CO)C(O)=C1O [NA, Niacinamide ascorbate]	dramatically increased the wound healing capability	–
Heparin	–	NC (NC = No Clot for 60 min)
